Results taken from patent publication US9402395B2, “Insecticidal compounds” (Syngenta Participations AG, priority 2013, dated 2016).

How the values were obtained:
Format in all cases: in vivo
[1] = system: Myzus persicae; test: Myzus persicae (Green peach aphid) sunflower leaf disc spray test; conditions: foliar, 144 h, application rate of 200 ppm, sunflower leaf discs, aphid population of mixed ages, mortality after 6 DAT
Method: Myzus persicae (Green peach aphid): Sunflower leaf discs were placed on agar in a 24-well microtiter plate and sprayed with test solutions at an application rate of 200 ppm. After drying, the leaf discs were infested with an aphid population of mixed ages. After an incubation period of 6 DAT, samples were checked for mortality.

[2] = system: Plutella xylostella; test: Plutella xylostella (Diamond back moth) larva test on artificial diet; conditions: 144 h, application rate of 200 ppm (concentration in well 18 ppm), L2 larvae, larval mortality and growth regulation after 6 days
Method: (§1) Plutella xylostella (Diamond back moth): 24-well microtiter plate (MTP) with artificial diet was treated with test solutions at an application rate of 200 ppm (concentration in well 18 ppm) by pipetting. After drying, the MTP's were infested with L2 larvae (7-12 per well). After an incubation period of 6 days, samples were checked for larval mortality and growth regulation.

[3] = system: Spodoptera littoralis; test: Spodoptera littoralis (Egyptian cotton leafworm) cotton leaf disc spray test; conditions: foliar, 72 h, application rate of 200 ppm, cotton leaf discs, L1 larvae, mortality, feeding behavior, growth regulation 3 days after treatment
Description: Spodoptera littoralis (Egyptian cotton leafworm): Cotton leaf discs were placed on agar in a 24-well microtiter plate and sprayed with test solutions at an application rate of 200 ppm. After drying, the leaf discs were infested with 5 L1 larvae. The samples were checked for mortality, feeding behavior, and growth regulation 3 days after treatment (DAT).

[4] = system: Tetranychus urticae; test: Tetranychus urticae (Two-spotted spider mite) bean leaf disc spray test; conditions: foliar, 192 h, application rate of 200 ppm, bean leaf discs, mite populations of mixed ages, egg, larval and adult mortality 8 days later
Description: Tetranychus urticae (Two-spotted spider mite): Bean leaf discs on agar in 24-well microtiter plates were sprayed with test solutions at an application rate of 200 ppm. After drying, the leaf discs are infested with mite populations of mixed ages. 8 days later, discs are checked for egg mortality, larval mortality, and adult mortality.

[5] = system: Thrips tabaci; test: Thrips tabaci (Onion thrips) sunflower leaf disc spray test; conditions: foliar, 168 h, application rate of 200 ppm, sunflower leaf discs, population of mixed ages, mortality after 7 days
Method: Thrips tabaci (Onion thrips): Sunflower leaf discs were placed on agar in a 24-well microtiter plate and sprayed with test solutions at an application rate of 200 ppm. […] After an incubation period of 7 days, samples were checked for mortality.

[6] = system: Heliothis virescens; test: Heliothis virescens (Tobacco budworm) egg/larva test on artificial diet; conditions: 96 h, application rate of 200 ppm (concentration in well 18 ppm), eggs 0-24 h old on artificial diet, egg mortality, larval mortality, growth regulation after 4 days
Method: Heliothis virescens (Tobacco budworm): Eggs (0-24 h old) were placed in 24-well microtiter plate on artificial diet and treated with test solutions at an application rate of 200 ppm (concentration in well 18 ppm) by pipetting. After an incubation period of 4 days, samples were checked for egg mortality, larval mortality, and growth regulation.

[7] = system: Diabrotica balteata; test: Diabrotica balteata (Corn root worm) larva test on artificial diet; conditions: 120 h, application rate of 200 ppm (concentration in well 18 ppm), L2 larvae, larval mortality and growth regulation after 5 days
Method: as §1, with “Diabrotica balteata (Corn root worm): A” for “Plutella xylostella (Diamond back moth):”, “(6-10” for “(7-12”, “5” for “6”

Measured: pest or weed control at 200 ppm

CCCN(C(=O)c1ccc[n+]([O-])c1)c1cccc(C(=O)N(C)c2c(Cl)cc(C(F)(C(F)(F)F)C(F)(F)F)cc2Br)c1F [Compound 1, N′-[3-[[2-bromo-6-chloro-4-[1,1,1,2,3,3,3-heptafluoro-prop-2-yl]phenyl]-N′-methyl-carbamoyl]-2-fluoro-phenyl]-N-propyl-1-oxido-pyridin-1-ium-3-carboxamide]
not listed: [6] | [7]
≥ 80%: all other assays above

CCc1cc(C(F)(C(F)(F)F)C(F)(F)F)cc(Br)c1N(C)C(=O)c1cccc(N(C)C(=O)c2cccnc2)c1F [Compound 2]
≥ 80%: all assays above

Cc1cc(C(F)(C(F)(F)F)C(F)(F)F)cc(Br)c1N(C)C(=O)c1cccc(N(C)C(=O)c2cccnc2)c1F [Compound 3]
not listed: [4]
≥ 80%: all other assays above

CN(C(=O)c1cccnc1)c1cccc(C(=O)Nc2c(Cl)cc(C(F)(C(F)(F)F)C(F)(F)F)cc2Br)c1F [Compound 4]
not listed: [3]
≥ 80%: all other assays above

CN(C(=O)c1ccc[n+]([O-])c1)c1cccc(C(=O)Nc2c(Cl)cc(C(F)(C(F)(F)F)C(F)(F)F)cc2Br)c1F [Compound 5]
not listed: [5]
≥ 80%: all other assays above

CCN(C(=O)c1cccnc1)c1cccc(C(=O)Nc2c(Cl)cc(C(F)(C(F)(F)F)C(F)(F)F)cc2Br)c1F [Compound 6]
≥ 80%: all assays above

CCN(C(=O)c1ccc[n+]([O-])c1)c1cccc(C(=O)Nc2c(Cl)cc(C(F)(C(F)(F)F)C(F)(F)F)cc2Br)c1F [Compound 7]
not listed: [5]
≥ 80%: all other assays above

CCCN(C(=O)c1cccnc1)c1cccc(C(=O)Nc2c(Cl)cc(C(F)(C(F)(F)F)C(F)(F)F)cc2Cl)c1 [Compound 8]
not listed: [4]
≥ 80%: all other assays above

CCCN(C(=O)c1ccc[n+]([O-])c1)c1cccc(C(=O)Nc2c(Cl)cc(C(F)(C(F)(F)F)C(F)(F)F)cc2Cl)c1 [Compound 9]
≥ 80%: [1] | [6] | [2] | [5]

CCN(C(=O)c1cccnc1)c1cccc(C(=O)Nc2c(Br)cc(C(F)(C(F)(F)F)C(F)(F)F)cc2Br)c1F [Compound 11]
≥ 80%: all assays above

CN(C(=O)c1cccnc1)c1cccc(C(=O)Nc2c(Br)cc(C(F)(C(F)(F)F)C(F)(F)F)cc2Br)c1F [Compound 12]
≥ 80%: all assays above

CCN(C(=O)c1ccc[n+]([O-])c1)c1cccc(C(=O)Nc2c(Br)cc(C(F)(C(F)(F)F)C(F)(F)F)cc2Br)c1F [Compound 13]
≥ 80%: all assays above

CN(C(=O)c1cccnc1)c1cccc(C(=O)N(C)c2c(Br)cc(C(F)(C(F)(F)F)C(F)(F)F)cc2Br)c1 [Compound 15]
not listed: [4] | [7]
≥ 80%: all other assays above

CCN(C(=O)c1cccnc1)c1cccc(C(=O)Nc2c(Cl)cc(C(F)(C(F)(F)F)C(F)(F)F)cc2Cl)c1F [Compound 16]
≥ 80%: all assays above

Cc1cc(C(F)(C(F)(F)F)C(F)(F)F)cc(Cl)c1NC(=O)c1cccc(N(C)C(=O)c2cccnc2)c1F [Compound 17]
≥ 80%: all assays above

CCN(C(=O)c1cccnc1)c1cccc(C(=O)Nc2c(C)cc(C(F)(C(F)(F)F)C(F)(F)F)cc2Cl)c1F [Compound 18]
≥ 80%: all assays above
